Laboratory results reported in patent US7919076B2, “PH-sensitive polymeric conjugates of an anthracycline cancerostatic drug for targeted therapy” (Zentiva, k.s., priority 2001, dated 2011).

Tested on: T-cellular lymphoma (EL4)
Test: in vivo anti-tumor activity, s.c. T-cellular lymphoma EL4 in C57BL/10 mice
Design: species or system mouse
Experimental: Mice of inbred strain C57BL/10 were subcutaneously transplanted with T-cellular lymphoma (EL4). The tumor cells were injected in the lower half of the back of experimental animals in the amount of 1×10^5 cells/mouse. The cell transplantation day was marked day 0. Polymeric conjugates with hydrolytically released doxorubicin were then administered intraperitoneally either on day 1, 3, 5, 7 and 9 (protective regimen), on day 10, 12, 14, 16 and 18 or on day 12, 14, 16, 18 and 20 (therapeutic regimen). The daily dose of doxorubicin was 50 μg/mouse.

## COc1cccc2c1C(=O)c1c(O)c3c(c(O)c1C2=O)C[C@@](O)(C(=O)CO)C[C@@H]3O[C@H]1C[C@H](N)[C@H](O)[C@H](C)O1 [doxorubicin]
EL4, i.p., doxorubicin 50 μg/mouse daily dose
  anti-tumor effect (tumor growth, survival): very limited effect
EL4, control group 35 days
  maximum survival period of the experimental animals: 40 days
